The record followed here is PMC5861220, “The Cytochrome P450-Mediated Metabolism Alternation of Four Effective Lignans From Schisandra chinensis in Carbon Tetrachloride-Intoxicated Rats and Patients With Advanced Hepatocellular Carcinoma” (Frontiers in Pharmacology, 2018).

A short description of data set [1]: Transport across Caco-2 cell monolayer. Conditions: human, Caco-2; for efflux ratio at 2 h, 5 μM / efflux ratio at 2 h, 10 μM / efflux ratio at 2 h, 50 μM: ER = Papp (BL → AP)/Papp(AP → BL). It counts as in vitro ADME. The procedure: (§1) Caco-2 cell (passage 38) was used in the transport experiments. Cells were seeded on polycarbonate filters (12 mm diameter, pore size […]) at 1 × 10^5/cm^2. The cell monolayer was formed 21 days post seeding when the transepithelial electrical resistance (TEER) was above 1,000 Ω• cm^2. Three concentration levels (5, 10, and 50 μM) were set for the four schisandra lignans in the study. After preincubation for 1 h at 37°C, the solution of the four lignans was respectively added to the apical (0.4 mL) or basolateral (0.6 mL) chamber for absorptive (AP → BL) and secretive (BL → AP) permeability test. At the specified timepoints (0.5, 1, 1.5 and 2 h), 50 μL samples (n = 3) were withdrawn from receiver chamber, and meanwhile, 50 μL fresh buffer was added. The four lignans were determined by HPLC-MS method.
The efflux rate (ER) was calculated by the formula ER = Papp (BL → AP)/Papp(AP → BL).
On the technique in general: Passage across Caco-2 layers is used to estimate intestinal permeability.

For the next data set, the system named is P-glycoprotein (P-gp). In words: P-gp substrate assessment from Caco-2 transport (Papp and ER). It counts as in vitro ADME. Conditions: Caco-2 cell monolayer, 5, 10 and 50 μM. The procedure: as §1
The apparent permeability coefficient (Papp) in the Caco-2 cell was calculated by the formula Papp = (ΔQ/Δt)/AC0, where ΔQ/Δt is the transport rate (nmol/s), which remained approximately constant in time, A is the well membrane area (0.6 cm^2), and C0 is the initial concentration of the four lignans (μM). The efflux rate (ER) was calculated by the formula ER = Papp (BL → AP)/Papp(AP → BL).

One may read the Papp A→B as the apparent permeability from the apical to the basolateral side of a cell layer. A high value points to fast passage. As a reminder, the Papp B→A is the apparent permeability from the basolateral to the apical side of a cell layer. One may read the efflux ratio as a quotient of directional permeabilities that is used to spot active efflux. Take `COc1cc2c(c(OC)c1OC)-c1c(cc(OC)c(OC)c1OC)C[C@](C)(O)[C@@H](C)C2` [Schisandrin, schisandrin]: in data set [1], the apical-to-basolateral permeability (Papp A→B) at 2 h, 5 μM was found to be 2.15 ± 0.56 ×10⁻⁶ cm/s; the Papp B→A at 2 h, 5 μM was found to be 3.31 ± 0.59 ×10⁻⁶ cm/s; the efflux ratio at 2 h, 5 μM was found to be 1.54; the Papp A→B at 2 h, 10 μM amounted to 1.86 ± 0.17 ×10⁻⁶ cm/s. For the same molecule, in data set [1], the apparent permeability from basolateral to apical (Papp B→A) at 2 h, 10 μM came to 2.03 ± 0.11 ×10⁻⁶ cm/s; the efflux ratio at 2 h, 10 μM is 1.09; the Papp A→B at 2 h, 50 μM came to 1.93 ± 0.2 ×10⁻⁶ cm/s; the Papp B→A at 2 h, 50 μM is 2.12 ± 0.17 ×10⁻⁶ cm/s. In addition, the efflux ratio at 2 h, 50 μM in data set [1] was found to be 1.1.

Consider `COc1cc2c(c(OC)c1OC)-c1c(cc(OC)c(OC)c1OC)C[C@H](C)[C@@H](C)C2` [Deoxyshisandrin, deoxyshisandrin], for which the “P-glycoprotein (P-gp) substrate classification according to Papp and ER” value in the data set with P-glycoprotein (P-gp) is given as “some efflux trend”. In data set [1], the Papp A→B at 2 h, 5 μM turned out to be 1.17 ± 0.13 ×10⁻⁶ cm/s; the Papp B→A at 2 h, 5 μM turned out to be 1.67 ± 0.14 ×10⁻⁶ cm/s; the efflux ratio at 2 h, 5 μM was determined as 1.42; the apical-to-basolateral permeability (Papp A→B) at 2 h, 10 μM was found to be 1.16 ± 0.04 ×10⁻⁶ cm/s. For the same molecule, in data set [1], the basolateral-to-apical permeability (Papp B→A) at 2 h, 10 μM stood at 1.52 ± 0.16 ×10⁻⁶ cm/s; the efflux ratio at 2 h, 10 μM worked out at 1.31; the Papp A→B at 2 h, 50 μM is 1.24 ± 0.17 ×10⁻⁶ cm/s; the Papp B→A at 2 h, 50 μM was 1.71 ± 0.51 ×10⁻⁶ cm/s. The efflux ratio at 2 h, 50 μM in data set [1] worked out at 1.38.
